Test results reported in patent US20240279562A1, “BIOACTIVE ADDITIVE FOR A FUEL, USES THEREOF, FUEL COMPOSITION, AND METHOD” (TUNAP GMBH & CO. KG, priority 2021, published 2024).

Experiments:
Assay type in all cases: cell-based
[1] = test system: Hormoconis resinae ATCC 20495; assay: Antimicrobial activity according to ASTM E 1259-10, kerosene fungus; settings: FIG. 3, additive 1000 ppm, additive composition 2000 ppm or 5000 ppm; for killing of the tested kerosene fungus: MBO 1000 ppm
From the text: • “TUNAP active ingredient”: test solution containing 1000 ppm 2-(2-heptadec-8-enyl-2-imidazolin-1-yl)ethanol additive (example according to the disclosure). • “TUNAP Protection System Diesel”: test solutions containing 2000 ppm or 5000 ppm of the additive composition “1903391” described below (corresponding to approx. 1000 ppm or 2500 ppm of the active ingredient 2-(2-heptadec-8-enyl-2-imidazolin-1-yl)ethanol) (examples according to the disclosure). • “Tunap 685 (Protezione Diesel) Biocide with MBO”: test solution containing 1000 ppm of the biocide MBO (3,3-methylenebis (5-methyloxazolidine), (comparative sample). • “BIT”: test solution containing 1000 ppm of the biocide BIT (benzisothiazolinone) (comparative sample). • “blank”: fuel without addition of an additive (comparative sample)
• at least 50% by weight 2-(2-heptadec-8-enyl-2-imidazolin-1-yl)ethanol • 10 to 20% by weight C10-C13 hydrocarbons • 5 to 10% by weight 2,6-di-tert-butyl-4-cresol • 5 to 10% by weight 2-ethylhexanol • 5 to 10% by weight 2-ethylhexyl nitrate • 5 to 10% by weight. of a mixture of bis(2-ethylhexyl)[(4-methyl-1H-1,2,3-benzotriazol-1-yl)methyl]amine, bis(2-ethylhexyl) [(4-methyl-2H-1,2,3-benzotriazol-2-yl)methyl]amine, bis(2-ethylhexyl) [(5-methyl-1H-1,2,3-benzotriazol-1-yl)methyl]amine, bis(2-ethylhexyl) [(5-methyl-2H-1,2,3-benzotriazol-2-yl)methyl]amine, bis(2-ethylhexyl) [(6-methyl-1H-1,2,3-benzotriazol-1-yl)methyl]amine
• Hormoconis resinae ATCC 20495 (“kerosene fungus”) • Pseudomonas aeruginosa DSM 15980 (“bacterium”) • Yarrowia tropicalis ATCC 48138 (“yeast”)
(§1) The antimicrobial activity of the samples against the tested microorganisms was determined according to ASTM E 1259-10.

[2] = test system: Pseudomonas aeruginosa DSM 15980; assay: Antimicrobial activity according to ASTM E 1259-10, bacterium; settings: FIG. 4; additive composition 2000 ppm or 5000 ppm, MBO 1000 ppm
From the text: (§2) • “TUNAP active ingredient”: test solution containing 1000 ppm 2-(2-heptadec-8-enyl-2-imidazolin-1-yl)ethanol additive (example according to the disclosure). • “TUNAP Protection System Diesel”: test solutions containing 2000 ppm or 5000 ppm of the additive composition “1903391” described below (corresponding to approx. 1000 ppm or 2500 ppm of the active ingredient 2-(2-heptadec-8-enyl-2-imidazolin-1-yl)ethanol) (examples according to the disclosure). • “Tunap 685 (Protezione Diesel) Biocide with MBO”: test solution containing 1000 ppm of the biocide MBO (3,3-methylenebis (5-methyloxazolidine), (comparative sample). • “BIT”: test solution containing 1000 ppm of the biocide BIT (benzisothiazolinone) (comparative sample). • “blank”: fuel without addition of an additive (comparative sample) […]
as §1

[3] = test system: Yarrowia tropicalis ATCC 48138; assay: Antimicrobial efficacy according to DIN EN 15457:2014-11, yeast fungus; settings: FIG. 2; test solution 1% by weight additive vs 0.1% by weight MBO or MIT
From the text: (§3) • “TUNAP new”: Test solution containing 1% by weight 2-(2-heptadec-8-enyl-2-imidazolin-1-yl)ethanol additive (example according to the disclosure). • “Standard diesel bug biocide with MBO”: test solution containing 0.1% by weight of the biocide MBO (3,3-methylenebis (5-methyloxazolidine)) (comparative sample). • “MIT”: test solution containing 0.1% by weight of the biocide MIT (2-methyl-2H-isothiazol-3-one), (comparative sample). • “Pure fuel”: fuel without the addition of an additive (comparative sample)
(§4) • Hormoconis resinae ATCC 20495 (“kerosene fungus”) • Yarrowia tropicalis ATCC 48138 (“yeast fungus”)
(§5) The antimicrobial efficacy of the samples against the tested microorganisms was determined according to DIN EN 15457:2014-11.

[4] = test system: Yarrowia tropicalis ATCC 48138; assay: Antimicrobial activity according to ASTM E 1259-10, yeast; settings: FIG. 5; additive 1000 ppm, additive composition 2000 ppm or 5000 ppm, BIT 1000 ppm
From the text: as §2, §1

[5] = test system: Hormoconis resinae ATCC 20495; assay: Antimicrobial efficacy according to DIN EN 15457:2014-11, kerosene fungus; settings: FIG. 1; test solution 1% by weight additive vs 0.1% by weight MBO or MIT
From the text: as §3, §4, §5

| SMILES | killing of the tested kerosene fungus [1] | killing of the tested bacterium [2] | efficacy against the tested yeast fungus compared with MBO and MIT [3] | efficacy against the tested kerosene fungus compared with BIT ([1]; BIT 1000 ppm) | efficacy against the tested yeast compared with BIT [4] | efficacy against the tested kerosene fungus compared with MBO and MIT [5] |
| --- | --- | --- | --- | --- | --- | --- |
| CC1CN(CN2COC(C)C2)CO1 (stereo not shown) [MBO, 3,3-methylenebis (5-methyloxazolidine), reference compound] | almost complete killing | almost complete killing |  |  |  |  |
| CCCCCCCCC=CCCCCCCCC1=NCCN1CCO [additive according to the disclosure, 2-(2-heptadec-8-enyl-2-imidazolin-1-yl)ethanol] | almost complete killing |  | at least a similar efficacy against the tested yeast fungus as the conventional but toxic biocides MBO and MIT | significantly improved efficacy against the tested kerosene fungus than the conventional biocide BIT | significantly improved efficacy against the tested yeast than the conventional biocide BIT | significantly improved efficacy against the tested kerosene fungus than the conventional and also toxic biocides MBO and MIT |
